Assay results published in patent publication US20220235088A1 (Memorial Sloan-Kettering Cancer Center, priority 2019, published 2022).
Values after ≈ are worked out from the molar mass of the structure shown. Values joined by “and” are separate entries in the source; they are usually repeats but may differ in a detail not shown here. Identical values can stand only once. “Also recorded” adds a separate entry of the source.

Key:
E. coli MenE = target: T1, E. coli MenE (Escherichia coli, UniProt P37353); assay: MenE-MenB coupled enzyme inhibition assay (DHNA-CoA production at 392 nm); assay type: biochemical; details: for inhibition of MenE (in words): MenE coupled assay; for IC50: ecMenE 50 nM, OSB 60 μM, ATP 240 μM, CoA 240 μM, pH 7.4
T1 construct: His6 (N); made in house; host or cells: E. coli BL21(DE3) pLysS
T1 sequence (P37353 whole entry): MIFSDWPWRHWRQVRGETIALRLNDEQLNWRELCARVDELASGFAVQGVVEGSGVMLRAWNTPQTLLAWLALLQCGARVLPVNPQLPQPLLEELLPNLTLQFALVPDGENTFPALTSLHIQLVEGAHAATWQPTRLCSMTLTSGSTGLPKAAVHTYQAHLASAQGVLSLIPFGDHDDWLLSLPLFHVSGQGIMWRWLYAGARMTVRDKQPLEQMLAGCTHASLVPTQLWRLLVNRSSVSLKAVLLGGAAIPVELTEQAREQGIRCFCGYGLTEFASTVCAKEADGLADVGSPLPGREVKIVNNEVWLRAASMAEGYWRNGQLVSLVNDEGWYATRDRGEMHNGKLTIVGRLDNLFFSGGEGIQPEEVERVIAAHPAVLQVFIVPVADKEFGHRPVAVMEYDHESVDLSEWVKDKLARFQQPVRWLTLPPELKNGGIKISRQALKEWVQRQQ
Protocol: Enzyme inhibition studies were performed in 20 mM NaHPO4 buffer (pH 7.4) containing 150 mM NaCl and 1 mM MgCl2 using a […] coupled assay in which MenE is rate-limiting. […] Reactions were initiated by addition of ecMenE (50 nM), and the production of DHNA-CoA was monitored at 392 nm (ε392=4000 M^−1 cm^−1).
With these linker analogues in hand, their inhibition of E. coli MenE using the previously reported MenE-Meng coupled assay was evaluated (Lu, X. et al. Bioorg. Med. Chem. Lett. 2008, 18, 5963). Consistent with predictions from the docking experiments, all but one of the analogues inhibited MenE, albeit with modest IC50 values compared to OSB-AMS (1) (Table 2).

E. coli MenE(wt) = target: T2, E. coli MenE(wt) (Escherichia coli, UniProt P37353); assay: Isothermal titration calorimetry, wild-type MenE; assay type: binding
T2 construct: His6 (N); made in house; host or cells: E. coli BL21(DE3) pLysS
T2 sequence (P37353 whole entry): as above
Protocol: (§1) ITC was performed using VP-ITC instrument at 22° C. Inhibitor (1 mM) and E. coli MenE(wt) (30 μM) were prepared in 20 mM NaHPO4, pH 7.4 buffer containing 150 mM NaCl and 1 mM MgCl2. From the injection syringe, the inhibitor was titrated into the sample cell containing 1.8 mL solution of MenE. The data were fit to a single-binding site model with the Origin software package.
Next. the binding affinity of the 5 with E. coli MenE was deteremined using isothermal titration calorimetry (ITC).

E. coli MenE (K437A) = target: T3, E. coli MenE (K437A) (Escherichia coli, UniProt P37353, K437A); assay: Isothermal titration calorimetry, MenE K437A lynchpin mutant; assay type: binding; details: ITC
T3 construct: His6 (N); made in house; host or cells: E. coli BL21(DE3) pLysS
T3 sequence (P37353 1-451 K437A): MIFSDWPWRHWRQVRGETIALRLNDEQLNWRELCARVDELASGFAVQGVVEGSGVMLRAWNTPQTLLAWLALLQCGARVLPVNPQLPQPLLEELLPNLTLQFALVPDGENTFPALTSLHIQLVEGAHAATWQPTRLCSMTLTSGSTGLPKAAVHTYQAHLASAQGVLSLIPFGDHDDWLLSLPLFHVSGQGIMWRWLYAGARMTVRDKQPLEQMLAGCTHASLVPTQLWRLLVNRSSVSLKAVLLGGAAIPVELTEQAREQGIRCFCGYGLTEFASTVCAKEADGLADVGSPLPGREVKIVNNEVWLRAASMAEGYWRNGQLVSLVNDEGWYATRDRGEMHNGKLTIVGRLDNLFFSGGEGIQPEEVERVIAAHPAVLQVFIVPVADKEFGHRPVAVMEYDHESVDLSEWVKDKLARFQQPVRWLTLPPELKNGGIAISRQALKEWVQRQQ
Protocol: Based on the nucleotide sequence of MenE (from E. coli strain K-12), the forward primer with the sequence of 5′-[…]-3′ and T7 reverse primer were designed, synthesized, and used to introduce the K437A mutation in E. coli MenE. High-fidelity Phusion polymerase (New England BioLabs) was used for standard polymerase chain reaction amplification and mutagenesis.
as §1
To probe for these interactions experimentally. the binding affinity of m-phenyl ether analogue 5 to wild-type E. coli MenE and the K437A mutant were compared.

MRSA (ATCC BAA-1762) = details: MRSA (ATCC BAA1762); Matarlo et al. Biochemistry 2015; cited from earlier work

Structure (SMILES) | inhibition of MenE (in words) (E. coli MenE) | IC50 (E. coli MenE) | Kd (E. coli MenE(wt); ITC, 22° C, wild-type E. coli MenE) | Kd (E. coli MenE (K437A)) | binding in the ITC assay (in words) (E. coli MenE(wt); E. coli MenE) | MIC (MRSA (ATCC BAA-1762))
Nc1ncnc2c1ncn2[C@@H]1O[C@H](COc2cc(CCC(=O)c3ccccc3C(=O)O)cc(C(F)(F)F)c2)[C@@H](O)[C@H]1O [compound 8] | slightly weaker inhibition | 26500 ± 2300 nM | – | – | – | –
Nc1ncnc2c1ncn2[C@@H]1O[C@H](COc2cccc(CCC(=O)c3ccccc3C(=O)O)c2)[C@@H](O)[C@H]1O [compound 5] | – | 8100 ± 900 nM | 244 nM and 249 nM | 244 nM | – | –
Nc1ncnc2c1ncn2[C@@H]1O[C@H](COc2ccc(CCC(=O)c3ccccc3C(=O)O)cc2)[C@@H](O)[C@H]1O [compound 6, 5′-O-([2-(Carboxyl)phenyl]3-(3-hydroxyphenyl)propannyl)adenosine] | no inhibition; also recorded: did not inhibit MenE | > 200000 nM | – | – | no binding | –
Nc1ncnc2c1ncn2[C@@H]1O[C@H](COS(=O)(=O)NC(=O)CCC(=O)c2ccccc2C(=O)O)[C@@H](O)[C@H]1O [OSB-AMS (1)] | – | – | – | – | – | 31.25 µg/mL (≈ 56.8 µM)
